In US9540370B2, “Heterocyclic compounds and their use as glycogen synthase kinase-3 inhibitors” (ABBVIE DEUTSCHLAND GMBH & CO. KG, priority 2010, dated 2017):

These compounds were tested against T1, human Glycogen Synthase Kinase-3 beta (hGSK-3β) (Homo sapiens, UniProt P49841) (assay: Biochemical hGSK-3Beta assay (33P incorporation into biotinylated peptide substrate)). Conditions: 10 μM ATP, 30 minutes at room temperature; read-out: GSK-3β IC50.
T1 construct: purchased Upstate cell signaling solutions
T1 sequence (P49841 whole entry): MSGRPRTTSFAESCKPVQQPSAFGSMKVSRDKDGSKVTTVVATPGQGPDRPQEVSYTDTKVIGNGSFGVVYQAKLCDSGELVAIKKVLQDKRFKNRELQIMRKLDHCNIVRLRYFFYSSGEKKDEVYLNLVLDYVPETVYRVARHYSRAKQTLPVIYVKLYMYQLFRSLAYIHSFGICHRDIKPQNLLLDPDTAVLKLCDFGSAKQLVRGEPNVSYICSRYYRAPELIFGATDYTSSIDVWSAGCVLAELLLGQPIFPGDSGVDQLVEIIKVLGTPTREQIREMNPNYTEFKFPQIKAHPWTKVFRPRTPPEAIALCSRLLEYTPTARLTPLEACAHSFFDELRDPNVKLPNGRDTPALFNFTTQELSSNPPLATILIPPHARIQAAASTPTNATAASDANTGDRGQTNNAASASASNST
Procedure: Methods—Biochemical hGSK-3Beta Assay
Compounds were tested for their ability to inhibit human Glycogen Synthase Kinase-3 beta (hGSK-3β) to phosphorylate biotin-[…](pS)EDEEE. Compounds were incubated with 0.5 μCi 33P-ATP, 10 μM ATP, 0.0125 U hGSK-3β (Upstate cell signaling solutions) and 1 μM substrate (biotin-[…](pS)EDEEE) in 50 mM HEPES, 10 mM MgCl2, […], 1 mM DTT, 0.0075% Triton, 2% DMSO (total volume 50 μL) for 30 minutes at room temperature. The incubation was stopped by addition of an equal volume of 100 mM EDTA, 4M NaCl. 80 μL of this mixture was added to streptavidin-coated Flash -plates (Perkin Elmer). Following a wash step, 33P incorporation was quantified on a MicroBeta microplate liquid scintillation counter (PerkinElmer). IC50s were determined by fitting a sigmoidal dose-response curve to the counts obtained at the different concentrations in GraphPad Prism.
`O=C(Nc1cccc(C2CCOCC2)n1)Nc1ccnc2c(F)cccc12` [Example 2, 1-(8-Fluoroquinolin-4-yl)-3-(6-(tetrahydro-2H-pyran-4-yl)pyridin-2-yl)urea] was tested, and the IC50 was < 100 nM.
For `O=C(Nc1cccc(C2=COCCC2)n1)Nc1ccnc2c(F)cccc12` [Example 3, 1-(6-(3,4-Dihydro-2H-pyran-5-yl)pyridin-2-yl)-3-(8-fluoroquinolin-4-yl)urea], the IC50 was < 100 nM.
For `O=C(Nc1cccc(C(F)(F)F)n1)Nc1ccnc2c(F)cc(F)cc12` [Example 18, 1-(6,8-Difluoroquinolin-4-yl)-3-(6-trifluoromethyl-pyridin-2-yl)-urea], the IC50 was < 100 nM.
With `O=C(Nc1cccc(C(F)(F)F)n1)Nc1ccnc2c(I)cccc12` [Example 24, 1-(8-Iodoquinolin-4-yl)-3-(6-trifluoromethyl-pyridin-2-yl)-urea] the IC50 was < 100 nM.
For `COc1ccc2c(NC(=O)Nc3cccc(C(F)(F)F)n3)ccnc2c1` [Example 21, 1-(7-Methoxyquinolin-4-yl)-3-(6-trifluoromethyl-pyridin-2-yl)-urea], the IC50 was < 100 nM.
For `O=C(Nc1cccc(C(F)(F)F)n1)Nc1ccnc2ccccc12` [Example 17, 1-(6-(Trifluoromethyl)pyridin-2-yl)-3-quinolin-4-yl-urea], the IC50 was < 100 nM.
With `O=C(Nc1cccc(C(F)(F)F)n1)Nc1ccnc2cc(Br)ccc12` [Example 19, 1-(7-Bromoquinolin-4-yl)-3-(6-trifluoromethyl-pyridin-2-yl)-urea] the IC50 was < 100 nM.
With `O=C(Nc1cccc(C(F)(F)F)n1)Nc1ccnc2ccc(Br)cc12` [Example 16, 1-(6-Bromo-quinolin-4-yl)-3-(6-trifluoromethyl-pyridin-2-yl)-urea] the IC50 was < 100 nM.
With `O=C(Nc1cccc(C2=CCOCC2)n1)Nc1ccnc2c(F)cccc12` [Example 1, 1-(6-(3,6-Dihydro-2H-pyran-4-yl)pyridin-2-yl)-3-(8-fluoroquinolin-4-yl)urea] the IC50 was < 100 nM.
`N#Cc1cccc2c(NC(=O)Nc3cccc(C(F)(F)F)n3)ccnc12` [Example 23] was tested, and the IC50 was < 100 nM.
